Test results as given in patent US4396625A, “Treatment of glaucoma or ocular hypertension and ophthalmic composition” (Sumitomo Chemical Company, Limited, priority 1980, dated 1983).
Counter-ions that a name gives are not always drawn.

Columns and labels:
[1] = test system: intra-ocular pressure of the eye; assay: Intra-ocular pressure measurement after local (ophthalmic) administration in dogs; assay type: in vivo, dog (Beagle); conditions: dog, 0.5 w/v %, one drop
Method: In the local administration tests, compound (I) was applied to one eye of healthy grown-up dog (male or female; body weight 10 to 14 kg; Beagle dog) being normal in sense of sight and other sensitive faculties and having no morphological abnormality in the eyes, and evaluated for the effect thereof.
The test ophthalmic composition was prepared according to the recipe of Example 4, so as to include 0.5 w/v % of compound (I) HCl salt.
(§1) One drop (about 0.04 ml) of the ophthalmic composition was applied to a conjunctival sac of one eye and a drop of physiologic saline was into the conjunctival sac of the other eye. Thus applied eyes were kept closed for 5 to 10 seconds to ensure the osmosis of the medicament administered. Intra-ocular pressure in the respective eye was measured by using an Alcon Pneumatonography, just before the treatment with said medicine, and 1 to 24 hours after said administration. At each time, one drop of 0.4% oxydibucaine HCl ophthalmic composition (Trade Mark: Benoxyl® 0.4%; Santen Seiyaku K.K.) was applied to and intra-ocular pressure was measured after 20 to 30 seconds thereafter.

[2] = test system: intra-ocular pressure of the eye; assay: Intra-ocular pressure measurement after ophthalmic administration in albino rabbits; assay type: in vivo; conditions: rabbit
Method: as §1
Using the same procedure as stated in Example 1, compound (I) was evaluated with 12 albino rabbits (male; body weight 2 to 3 kg, native kind). As the test medicaments, aqueous 0.5 w/v % and 0.25 w/v % compound (I) HCl solutions prepared according to Example 4 were used, as well as physiologic saline control solution.

[3] = Stability / precipitation of ophthalmic solution on storage; assay type: physicochemical; conditions: 40° C., 3 months
Method: To a part of distilled water required, was added 500 mg of compound (I) hydrochloride and the mixture was stirred at room temperature to dissolve the active ingredient. Next, D-mannitol 5 g, glycine 500 mg and Benzalkonium chloride 5 mg were added in this order and dissolved in the same way. After adjusting pH of the solution to 5.5 with hydrochloric acid, the mixture was added with distilled water to make the total volume to 100 ml. The solution was filtered under sterile conditions.
The following ophthalmic composition was prepared in the same way as stated in Example 4, using 100 mg of compound (I) acetate in place of 500 mg of compound (I) hydrochloride.
To a part of the required distilled water, was added 250 mg of compound (I) maleate, and the mixture was heated to 30° C. and stirred to dissolve the active ingredient. To this solution, 4 g of D-manitol, 1 g of glycine and 5 mg of Benzalkonium chloride were added and dissolved in this order. After adjusting pH of the solution to 6.0 with hydrochloric acid, the solution was added with distilled water to make the volume to 100 ml, and thus obtained solution was filtered under sterile conditions.

[4] = Rat acute toxicity; assay type: in vivo; conditions: in vivo
[5] = test system: rat; assay: Rat acute toxicity; assay type: in vivo; conditions: acute toxicity
[6] = Mouse acute toxicity; assay type: in vivo; conditions: in vivo
[7] = test system: mouse; assay: Mouse acute toxicity; assay type: in vivo; conditions: acute toxicity

CC(C)(C)NCC(O)CSc1nc(-c2ccc(C(N)=O)s2)cs1 (centres unmarked) [compound (I) HCl]
Intra-ocular pressure (mean ± standard error) ([1]; 1 hour later): 20.0 ± 0.9 mm Hg
Intra-ocular pressure (mean ± standard error) ([1]; 3 hours later): 16.6 ± 1.0 mm Hg
Intra-ocular pressure (mean ± standard error) ([1]; 5 hours later): 15.4 ± 0.9 mm Hg
Intra-ocular pressure (mean ± standard error) ([1]; 7 hours later): 16.0 ± 1.3 mm Hg
Intra-ocular pressure (mean ± standard error) ([1]; 9 hours later): 17.6 ± 1.2 mm Hg
Intra-ocular pressure (mean ± standard error) ([1]; 12 hours later): 20.4 ± 0.7 mm Hg
Intra-ocular pressure (mean ± standard error) ([1]; 24 hours later): 20.6 ± 0.8 mm Hg
Intra-ocular pressure (mean ± standard error) ([1]; before administration): 20.8 ± 0.9 mm Hg
Intra-ocular pressure (mean ± standard error) ([2]; 0.25 w/v %, 0.5 hour later): 20.7 ± 0.7 mm Hg
Intra-ocular pressure (mean ± standard error) ([2]; 0.25 w/v %, 1 hour later): 20.2 ± 0.6 mm Hg
Intra-ocular pressure (mean ± standard error) ([2]; 0.25 w/v %, 2 hours later): 19.8 ± 0.5 mm Hg
Intra-ocular pressure (mean ± standard error) ([2]; 0.25 w/v %, 3 hours later): 20.1 ± 0.6 mm Hg
Intra-ocular pressure (mean ± standard error) ([2]; 0.25 w/v %, 5 hours later): 22.1 ± 0.6 mm Hg
Intra-ocular pressure (mean ± standard error) ([2]; 0.25 w/v %, 7 hours later): 22.9 ± 0.8 mm Hg
Intra-ocular pressure (mean ± standard error) ([2]; 0.25 w/v %, 9 hours later): 21.0 ± 0.7 mm Hg
Intra-ocular pressure (mean ± standard error) ([2]; 0.25 w/v %, 24 hours later): 22.2 ± 0.6 mm Hg
Intra-ocular pressure (mean ± standard error) ([2]; 0.25 w/v %, before administration): 21.8 ± 0.5 mm Hg
Intra-ocular pressure (mean ± standard error) ([2]; 0.5 w/v %, 0.5 hour later): 21.1 ± 0.8 mm Hg
Intra-ocular pressure (mean ± standard error) ([2]; 0.5 w/v %, 1 hour later): 18.9 ± 0.9 mm Hg
Intra-ocular pressure (mean ± standard error) ([2]; 0.5 w/v %, 2 hours later): 18.5 ± 0.9 mm Hg
Intra-ocular pressure (mean ± standard error) ([2]; 0.5 w/v %, 3 hours later): 18.2 ± 0.8 mm Hg
Intra-ocular pressure (mean ± standard error) ([2]; 0.5 w/v %, 5 hours later): 21.6 ± 0.8 mm Hg
Intra-ocular pressure (mean ± standard error) ([2]; 0.5 w/v %, 7 hours later): 22.8 ± 0.8 mm Hg
Intra-ocular pressure (mean ± standard error) ([2]; 0.5 w/v %, 9 hours later): 22.2 ± 0.8 mm Hg
Intra-ocular pressure (mean ± standard error) ([2]; 0.5 w/v %, 24 hours later): 22.5 ± 0.8 mm Hg
Intra-ocular pressure (mean ± standard error) ([2]; 0.5 w/v %, before administration): 22.5 ± 0.6 mm Hg
stability / precipitation of ophthalmic solution ([3]; 0.5 % (w/v), pH 5.5): very stable and no precipitation was observed

CC(C)(C)NCC(O)CSc1nc(-c2ccc(C(N)=O)s2)cs1 (centres unmarked) [compound (I) acetate]
stability / precipitation of ophthalmic solution ([3]; 0.1 % (w/v)): very stable and no precipitation was observed

CC(C)(C)NCC(O)CSc1nc(-c2ccc(C(N)=O)s2)cs1 (centres unmarked) [compound (I) maleate]
stability / precipitation of ophthalmic solution ([3]; 0.25 % (w/v), pH 6.0): very stable and no precipitation was observed

CC(C)(C)NCC(O)CSc1nc(-c2ccc(C(N)=O)s2)cs1 (centres unmarked) [compound (I), 2-(3-tert.-butylamino-2-hydroxypropylthio)-4-(5-carbamoyl-2-thienyl)-thiazole]
LD50 ([4]; ip, intraperitoneal): 340 mg/kg
LD50 ([4]; oral): > 3000 mg/kg
toxic signs [5]: no animals showed particular troublesome symptoms
LD50 ([6]; ip, intraperitoneal): 500 mg/kg
LD50 ([6]; oral): > 5000 mg/kg
toxic signs [7]: no animals showed particular troublesome symptoms
